SMILES strings stand for the structures.

Data on nine compounds can be found in patent US12435079B2, “Bruton's tyrosine kinase inhibitors” (priority 2019, dated 2025).

This test addresses T1, BTK (Homo sapiens, UniProt Q06187).
T1 construct: purchased Promega V2941
Briefly: BTK Kinase Assay (ADP-Glo). Type of test: biochemical. Conditions: BTK enzyme, 50 μM ATP, one hour incubation, ADP-Glo luminescence; read-out: BTK Inhibition. On the procedure:
The BTK assay is performed using the BTK Kinase Enzyme System (Promega; Catalog #: V2941) and ADP-Glo™ Kinase Assay kit (Promega; Catalog #: V9101). Measurement were performed in a reaction volume of 5 μL using 384-well assay plate (Corning; Catalog #: 3570). 6 ng BTK enzyme, inhibitor or 1% DMSO, 1 μg Poly(Glu4, Tyr1) peptide, and 50 μM ATP were incubated in a reaction buffer composed of 40 mM Tris-Cl (pH7.5), 20 mM MgCl2, 0.1 mg/mL BSA, 50 μM DTT and 2 mM MnCl2 for one hour. ADP was detected as described in ADP-Glo™ Kinase Assay kit using 5 μl of ADP-Glo™ Reagent and 10 μl of Kinase Detection Reagent. Luminescence was recorded using a multimode plate reader (EnVision® Multilabel Reader, Perkin Elmer). There is a linear relationship between the luminescent signal and the amount of ADP in the reaction buffer. For each compound, enzyme activity was measured at various concentrations of compound, Negative control reactions were performed in the absence of inhibitor in three replicates and six no enzyme controls were used to determine baseline luminescence levels. Dose response curve were generated to determine the concentration required for IC50 of BTK activity.
The compound numbers correspond to the compound numbers in previous Tables. Compounds having an activity designated as “A” provided an IC 50≤10 nM; Compounds having an activity designated as “B” provided an IC50 10-100 nM; Compounds having an activity designated as “C” provided an IC50 100-1000 nM; Compounds having an activity designated as “D” provided an IC50 1000-10000 nM; Compounds having an activity designated as “E” provided an IC50≥10000 nM.
For orientation: ADP-Glo turns the ADP formed in a reaction into a luminescent signal.

T1 sequence (Q06187 whole entry): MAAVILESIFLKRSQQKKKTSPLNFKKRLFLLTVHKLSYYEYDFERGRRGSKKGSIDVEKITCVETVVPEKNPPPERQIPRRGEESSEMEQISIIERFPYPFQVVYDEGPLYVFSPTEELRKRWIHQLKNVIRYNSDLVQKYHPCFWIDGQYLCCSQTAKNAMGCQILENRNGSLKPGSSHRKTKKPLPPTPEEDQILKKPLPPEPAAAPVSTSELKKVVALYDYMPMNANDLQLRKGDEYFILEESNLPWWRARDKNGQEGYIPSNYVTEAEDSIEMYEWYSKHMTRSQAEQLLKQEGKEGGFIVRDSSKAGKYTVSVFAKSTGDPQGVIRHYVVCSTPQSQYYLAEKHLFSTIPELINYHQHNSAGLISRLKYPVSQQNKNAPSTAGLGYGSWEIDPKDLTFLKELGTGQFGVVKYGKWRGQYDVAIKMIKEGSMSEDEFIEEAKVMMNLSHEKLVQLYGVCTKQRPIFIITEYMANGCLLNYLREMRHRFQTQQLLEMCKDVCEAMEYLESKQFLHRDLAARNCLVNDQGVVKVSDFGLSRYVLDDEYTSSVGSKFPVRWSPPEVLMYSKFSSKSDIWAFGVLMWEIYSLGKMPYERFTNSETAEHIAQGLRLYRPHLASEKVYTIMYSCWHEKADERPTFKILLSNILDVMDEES

Take `Nc1nccn2c(C3CCCC(O)C3)nc(-c3ccc(Oc4ccccc4)cc3)c12` (stereo not drawn) [Compound 1, 3-[8-Amino-1-(4-phenoxy-phenyl)-imidazo[1,5-a]pyrazin-3-yl]-cyclohexanol]: the IC50 is no more than 10 nM.

With `COc1cccc(Oc2ccc(-c3nc(C4CCC(O)CC4)n4ccnc(N)c34)cc2)c1F` (stereo not drawn) [Compound 2, 4-{8-Amino-1-[4-(2-fluoro-3-methoxy-phenoxy)-phenyl]-imidazo[1,5-a]pyrazin-3-yl}-cyclohexanol], the IC50 was no more than 10 nM.

As for `COc1cccc(Oc2ccc(-c3nc([C@@H]4CCC[C@@H](O)C4)n4ccnc(N)c34)cc2)c1F` [Compound 4], the IC50 was no more than 10 nM.

For `Nc1nccn2c1c(-c1ccc(Oc3ccccc3)cc1)nc2[C@H]1CC[C@H](O)CC1` [Compound 5, 4-[8-Amino-1-(4-phenoxy-phenyl)-imidazo[1,5-a]pyrazin-3-yl]-cyclohexanol], the IC50 is no more than 10 nM.

As to `Nc1nccn2c(C3CCC(O)CC3)nc(-c3ccc(Oc4cccc(Cl)c4F)cc3)c12` (stereo not drawn) [Compound 6, 4-{8-Amino-1-[4-(3-chloro-2-fluoro-phenoxy)-phenyl]-imidazo[1,5-a]pyrazin-3-yl}-cyclohexanol], the IC50 is no more than 10 nM.

`Nc1nccn2c(C3CCC(O)CC3)nc(-c3ccc(Oc4cccc(Cl)c4)cc3)c12` (stereo not drawn) [Compound 7]: the IC50 was 10 to 100 nM.

In the case of `Cc1cccc(Oc2ccc(-c3nc(C4CCC(O)CC4)n4ccnc(N)c34)cc2)c1` (stereo not drawn) [Compound 8, 4-[8-Amino-1-(4-m-tolyloxy-phenyl)-imidazo[1,5-a]pyrazin-3-yl]-cyclohexanol], the IC50 was no more than 10 nM.

For `COc1cccc(Oc2ccc(-c3nc(C4CCC(O)CC4)n4ccnc(N)c34)cc2)c1C` (stereo not drawn) [Compound 9, 4-{8-Amino-1-[4-(3-methoxy-2-methyl-phenoxy)-phenyl]-imidazo[1,5-a]pyrazin-3-yl}-cyclohexanol], the IC50 lay within 10 to 100 nM.

As to `COc1ccccc1C(=O)NCc1ccc(-c2nc(C3CCC(O)CC3)n3ccnc(N)c23)cc1` (stereo not drawn) [Compound 11], the IC50 is no more than 10 nM.
